# Data: paper PMC7557582, “Broad-Spectrum Antimicrobial Activity and Improved Stability of a D-Amino Acid Enantiomer of DMPC-10A, the Designed Derivative of Dermaseptin Truncates” (Antibiotics, 2020)
# Non-standard residues stand in square brackets, D forms with d. Residues, ends and D or L forms follow the SMILES beside them. Cha = N[C@@H](CC1CCCCC1)C(=O)O
# Experiments:
# S. aureus (NCTC 10788) [1] = type: cell-based, Staphylococcus aureus; conditions: NCTC 10788, pH 7.4
# Description: (§6) Gram-positive bacteria Staphylococcus aureus (NCTC 10788) and Enterococcus faecalis (NCTC 12697) and Gram-negative bacteria Escherichia coli (NCTC 10418), Pseudomonas aeruginosa (ATCC 27853), and Klebsiella pneumoniae (ATCC 43816) were tested. […] All the bacterial strains were inoculated in Mueller Hinton broth (MHB), pH 7.4 (Oxiod, Basingstoke, UK) at 37 °C. Then, the log-phase bacteria were mixed with the peptide at the concentrations from 512 to 1 µM in two-fold dilution, in a 96 well-plate. The wells contained sterilized MHB and bacteria cultures were employed as a blank and growth control, respectively.
# MRSA (NCTC 12493) = type: cell-based, methicillin-resistant S. aureus; conditions: NCTC 12493, pH 7.4
# Description: as §6
# E. faecalis (NCTC 12697) = type: cell-based, Enterococcus faecalis; conditions: NCTC 12697, pH 7.4
# Description: as §6
# E. coli (NCTC 10418) [2] = type: cell-based, Escherichia coli; conditions: NCTC 10418, pH 7.4
# Description: as §6
# [3] = system: K. pneumoniae (ATCC 43816); type: cell-based, Klebsiella pneumoniae; conditions: ATCC 43816, pH 7.4
# Description: as §6
# [4] = system: K. pneumoniae (ATCC BAA 1705); type: cell-based, Klebsiella pneumoniae; conditions: ATCC BAA 1705, pH 7.4
# Description: as §6
# [5] = system: K. pneumoniae (ATCC BAA 2342); type: cell-based, Klebsiella pneumoniae; conditions: ATCC BAA 2342, pH 7.4
# Description: as §6
# [6] = system: P. aeruginosa (ATCC 27853); type: cell-based, Pseudomonas aeruginosa; conditions: ATCC 27853, pH 7.4
# Description: as §6
# S. aureus (NCTC 10788) [7] = type: cell-based, Staphylococcus aureus
# Description: (§1) Furthermore, the antimicrobial activity in the presence of MgCl2, CaCl2, NaCl and 10% fetal bovine serum (FBS) was investigated. In detail, 2 and 5 mM of MgCl2 and CaCl2, and 150 and 375 mM NaCl, were applied, respectively. The supplements were added into the medium that was used for diluting the bacteria suspension. Then, the diluted bacteria culture was mixed with the peptide stock solution in the 96-well plate, as mentioned above. The assay was performed three times and each assay contained 5 replicates.
# E. coli (NCTC 10418) [8] = type: cell-based, Escherichia coli
# Description: as §1
# trypsin = target: T1, trypsin (Bos taurus, UniProt P00760); test: Enzyme stability assay, trypsin; type: in vitro ADME; conditions: peptide in PBS, peptide:trypsin 100:1 (m/m), time points 0-120 min, stopped with 10% TFA, RP-HPLC peak area, three replicates
# T1 construct: gene PRSS1
# T1 sequence (P00760 24-246): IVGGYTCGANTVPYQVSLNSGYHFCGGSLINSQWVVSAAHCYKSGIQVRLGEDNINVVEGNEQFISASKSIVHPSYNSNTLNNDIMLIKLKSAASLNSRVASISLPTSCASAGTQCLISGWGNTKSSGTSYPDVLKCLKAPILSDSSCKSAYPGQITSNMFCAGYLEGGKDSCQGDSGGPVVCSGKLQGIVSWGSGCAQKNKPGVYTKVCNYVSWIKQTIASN
# Description: (§2) The peptides were dissolved in phosphate-buffered saline (PBS) and mixed with the respective enzyme (trypsin and chymotrypsin) with a ratio of 100:1 (m/m). Then, 135 µl of the reaction solution was transferred into a new vial. The hydrolysis reaction was immediately terminated by adding 15 µl of 10% TFA at the different time points (0, 5, 10, 20, 40, 60, 120 min). The mixture was then analyzed by reverse-phase HPLC and respective peak areas were calculated to obtain the residual amount of peptides at different times.
# chymotrypsin = chymotrypsin (Bos taurus, UniProt P00766); test: Enzyme stability assay, chymotrypsin; type: in vitro ADME; conditions: peptide in PBS, peptide:chymotrypsin 100:1 (m/m)
# Description: as §2
# [9] = system: S. aureus (NCTC 10788) biofilm; test: Inhibition of biofilm formation (crystal violet); type: cell-based, Staphylococcus aureus; conditions: 37 °C 24–48 h, crystal violet 595 nm
# Description: (§3) The antibiofilm activity of synthetic peptides was evaluated via the inhibitory effect against the formation of biofilm and the eradication of mature biofilm, which were performed as the previously study with minor modifications. […] Then, the solution in each well was discarded. The biofilm was washed with PBS. Finally, the biofilm in each well was stained by 100 μL of 0.1% crystal violet solution and further dissolved by 30% acetic acid. The absorbance of dissolved crystal violet in each well was recorded at 595 nm. For the eradication of mature biofilm, biofilm was formed with incubation at 37 °C for 24–48 h. Then, the plate was washed with PBS and filled with the peptides which were prepared in the fresh medium. After treatment for 24 h at 37 °C, the plate was stained as mentioned above. Both assays were repeated three times, with 5 replicates each time.
# [10] = system: MRSA (NCTC 12493) biofilm; test: Inhibition of biofilm formation (crystal violet); type: cell-based, methicillin-resistant S. aureus; conditions: 37 °C 24–48 h, crystal violet 595 nm
# Description: as §3
# [11] = system: K. pneumoniae (ATCC 43816) biofilm; test: Inhibition of biofilm formation (crystal violet); type: cell-based, Klebsiella pneumoniae; conditions: 37 °C 24–48 h, crystal violet 595 nm
# Description: as §3
# [12] = system: S. aureus (NCTC 10788) biofilm; test: Eradication of mature biofilm (crystal violet); type: cell-based, Staphylococcus aureus; conditions: high concentrations ranging from 32 to 128 µM, 24 h treatment at 37 °C
# Description: as §3
# [13] = system: MRSA (NCTC 12493) biofilm; test: Eradication of mature biofilm (crystal violet); type: cell-based, methicillin-resistant S. aureus; conditions: high concentrations ranging from 32 to 128 µM, 24 h treatment at 37 °C
# Description: as §3
# [14] = system: K. pneumoniae (ATCC 43816) biofilm; test: Eradication of mature biofilm (crystal violet); type: cell-based, Klebsiella pneumoniae; conditions: at 64 µM and 128 µM, compared with S. aureus and MRSA
# Description: as §3
# [15] = system: K. pneumoniae (ATCC BAA 1705); test: Checkerboard synergy assay; type: cell-based, Klebsiella pneumoniae
# Description: (§4) The bacteria culture was prepared and diluted as performed in Section 4.4. Then, the bacteria dilution was mixed with a different combination of DMPC-10B and the antibiotics in the 96-well plate. The wells only contained individual peptides or antibiotics were applied as reference controls. Similarly, the turbidity of each well in the plate was measured at OD 550 nm, after incubation at 37 °C for 24 h. The fractional inhibitory concentration index (FICI) of each combination was defined as follows: FICI=MIC of DMPC-10B in combination/MIC of DMPC-10B alone+MIC of antibiotic in combination/MIC of antibiotic alone
# (§5) The profile of the combination was interpreted as synergistic, additive, and antagonistic for FICI ≤ 0.5, 0.5 < FICI ≤ 4.0, and FICI > 4.0, respectively.
# [16] = system: K. pneumoniae (ATCC BAA 2342); test: Checkerboard synergy assay; type: cell-based, Klebsiella pneumoniae
# Description: as §4, §5
# [17] = system: Galleria mellonella larvae infected with K. pneumoniae (ATCC 43816); test: Galleria mellonella larva infection model; type: in vivo; conditions: 20 mg/kg injected 1 h after infection, 5 days, 10 larvae per group
# Description: The assessment of in vivo antimicrobial activity of DMPC-10B was performed using the larva of Galleria mellonella, as in the previous study, with minor modifications. The infection model was constructed by injecting 10 μL of MRSA (NCTC 12493) and K. pneumoniae (ATCC 43816) bacteria suspension (5 × 10^7 CFU/mL) which was prepared in PBS. After 1 h, each infected larva was further administered an injection of 10 μL of peptide solution at different doses of 5, 10, 20 mg/kg. The infected larva that was administered 10 μL of PBS was employed as a negative control, while 20 mg/kg of gentamicin was used as a positive control. Each group contained 10 larvae and all larvae were inspected every 24 h for 5 days (the first day was 12 h).
# [18] = system: healthy Galleria mellonella larvae; test: Toxicity to larvae without infection; type: in vivo; conditions: highest dose (20 mg/kg), 5 days
smiles,measurement,setting,value
CC(C)C[C@@H](NC(=O)[C@H](C)N)C(=O)N[C@@H](Cc1c[nH]c2ccccc12)C(=O)N[C@H](CCCCN)C(=O)N[C@H](CCCCN)C(=O)N[C@H](CC(C)C)C(=O)N[C@H](CC(C)C)C(=O)N[C@H](CCCCN)C(=O)N[C@H](CCCCN)C(=O)N[C@@H](CC1CCCCC1)C(N)=O [DMPC-10B] (H-A[dL]W[dK][dK][dL][dL][dK][dK][Cha]-NH2; N-terminus assumed),MBC,S. aureus (NCTC 10788) [1],16 µM
same,MIC,S. aureus (NCTC 10788) [1],4 µM
same,MBC,MRSA (NCTC 12493),8 µM
same,MIC,MRSA (NCTC 12493),4 µM
same,MBC,E. faecalis (NCTC 12697),64 µM
same,MIC,E. faecalis (NCTC 12697),64 µM
same,MBC,E. coli (NCTC 10418) [2],4 µM
same,MIC,E. coli (NCTC 10418) [2],2 µM
same,MBC,[3],8 µM
same,MIC,[3],8 µM
same,MBC,[4],32 µM
same,MIC,[4],32 µM
same,MBC,[5],16 µM
same,MIC,[5],16 µM
same,MBC,[6],32 µM
same,MIC,[6],4 µM
same,MIC with CaCl2 5 mM,S. aureus (NCTC 10788) [7],64 µM
same,MIC with FBS 10%,S. aureus (NCTC 10788) [7],8 µM
same,MIC with MgCl2 5 mM,S. aureus (NCTC 10788) [7],64 µM
same,MIC with NaCl 150 mM,S. aureus (NCTC 10788) [7],64 µM
same,MIC with NaCl 375 mM,S. aureus (NCTC 10788) [7],128 µM
same,"MIC, no additive",S. aureus (NCTC 10788) [7],4 µM
same,MIC with CaCl2 5 mM,E. coli (NCTC 10418) [8],32 µM
same,MIC with FBS 10%,E. coli (NCTC 10418) [8],4 µM
same,MIC with MgCl2 5 mM,E. coli (NCTC 10418) [8],32 µM
same,MIC with NaCl 150 mM,E. coli (NCTC 10418) [8],16 µM
same,MIC with NaCl 375 mM,E. coli (NCTC 10418) [8],32 µM
same,"MIC, no additive",E. coli (NCTC 10418) [8],2 µM
same,time within which trypsin could not degrade the peptide completely,trypsin,> 2 h
same,stability to hydrolysis by chymotrypsin,"chymotrypsin; 120 min, RP-HPLC peak area, three replicates",exhibited resistance to the hydrolysis
same,time within which L-Trp site was not cleaved by chymotrypsin,chymotrypsin; RP-HPLC,> 2 h
same,inhibition of biofilm formation,[9],effectively inhibited
same,inhibition of biofilm formation,[10],effectively inhibited
same,inhibition of biofilm formation,[11],less potent
same,biofilm eradication effect,[12],around 50%
same,biofilm eradication effect,[13],around 50%
same,biofilm eradication effect,[14],more potent effects
same,combined MIC of DMPC-10B with norfloxacin,[15]; first value,32/32
same,individual MIC of DMPC-10B (norfloxacin checkerboard),[15]; second value,32/32
same,combined MIC of DMPC-10B with norfloxacin,[16]; first value,16/16
same,individual MIC of DMPC-10B (norfloxacin checkerboard),[16]; second value,16/16
same,survival of infected larvae,[17],around 70%
same,death of healthy larvae,[18],did not induce any death
